{"source": "BindingDB's records for doi:10.1021/jm9901125", "about": "(Sapienza University of Rome, 2000)", "data": [{"molecular_target": "T1, Gag-Pol polyprotein [588-1027]/[588-1147] (Human immunodeficiency virus 1, UniProt P04585)", "T1 construct": "588-1027; 588-1147", "assay": "HIV-1 RT Assay", "conditions": "pH 7.8; 37 °C", "units": {"IC50": "µM"}, "values": [{"compound": "CCOC(=O)c1cccn1S(=O)(=O)c1cc(Cl)ccc1-n1cccc1", "note": "[Ethyl 1-{[5-Chloro-2-(1H-pyrrol-1-yl)phenyl]sulfonyl}-1H-pyrrole-2-carboxylate]", "IC50": "> 100"}, {"compound": "CCOC(=O)c1cc(C(C)O)cn1S(=O)(=O)c1cc(Cl)ccc1N", "note": "(stereo unspecified) [ethyl 1-[(2-amino-5-chlorobenzene)sulfonyl]-4-(1-hydroxyethyl)-1H-pyrrole-2-carboxylate]", "IC50": 0.17}, {"compound": "CCOC(=O)c1cc(CO)cn1S(=O)(=O)c1cc(Cl)ccc1N", "note": "[ethyl 1-[(2-amino-5-chlorobenzene)sulfonyl]-4-(hydroxymethyl)-1H-pyrrole-2-carboxylate]", "IC50": 0.05}, {"compound": "CCOC(=O)c1cc(COC)cn1S(=O)(=O)c1cc(Cl)ccc1N", "note": "[ethyl 1-[(2-amino-5-chlorobenzene)sulfonyl]-4-(methoxymethyl)-1H-pyrrole-2-carboxylate]", "IC50": 0.6}, {"compound": "CCOC(=O)c1cc(COc2ccccc2)cn1S(=O)(=O)c1cc(Cl)ccc1N", "note": "[ethyl 1-[(2-amino-5-chlorobenzene)sulfonyl]-4-(phenoxymethyl)-1H-pyrrole-2-carboxylate]", "IC50": 0.6}, {"compound": "CCOC(=O)c1cc(CNc2ccccc2)cn1S(=O)(=O)c1cc(Cl)ccc1N", "note": "[ethyl 1-[(2-amino-5-chlorobenzene)sulfonyl]-4-[(phenylamino)methyl]-1H-pyrrole-2-carboxylate]", "IC50": 0.5}, {"compound": "C=Cc1cc(C(=O)OCC)n(S(=O)(=O)c2cc(Cl)ccc2N)c1", "note": "[ethyl 1-[(2-amino-5-chlorobenzene)sulfonyl]-4-ethenyl-1H-pyrrole-2-carboxylate]", "IC50": 0.28}, {"compound": "CCOC(=O)c1cc(C)cn1S(=O)(=O)c1cc(Cl)ccc1N", "note": "[ethyl 1-[(2-amino-5-chlorobenzene)sulfonyl]-4-methyl-1H-pyrrole-2-carboxylate]", "IC50": 0.08}, {"compound": "CCOC(=O)c1cccn1S(=O)(=O)c1c(N)cccc1Cl", "note": "[ethyl 1-[(2-amino-6-chlorobenzene)sulfonyl]-1H-pyrrole-2-carboxylate]", "IC50": "> 100"}, {"compound": "CC(C)OC(=O)c1cc(CO)cn1S(=O)(=O)c1cc(Cl)ccc1N", "note": "[propan-2-yl 1-[(2-amino-5-chlorobenzene)sulfonyl]-4-(hydroxymethyl)-1H-pyrrole-2-carboxylate]", "IC50": 0.11}, {"compound": "CC(C)OC(=O)c1cc(CNc2ccccc2)cn1S(=O)(=O)c1cc(Cl)ccc1N", "note": "[propan-2-yl 1-[(2-amino-5-chlorobenzene)sulfonyl]-4-[(phenylamino)methyl]-1H-pyrrole-2-carboxylate]", "IC50": 0.3}]}]}
